According to patent publication US20070111258A1, “Compositions and methods for modulating the acute phase response” (priority 2005, published 2007):

System: CREBH mRNA
Test: CREBH mRNA induction in H2.35 cells (Northern blot, quantitative real-time RT-PCR)
Type: cell-based
Details: murine H2.35 hepatoma cells; IL6 40 ng/ml, TNFα 20 ng/ml, IL1β 40 ng/ml, DTT 5 mM, Tg 0.5 μM, Tm 5 μg/ml, BFA 0.5 μg/ml; 4, 8, 12 hours
Method: FIG. 1 depicts the induction of expression of CREBH during fetal liver development and by proinflammatory cytokines. (A) Structural comparison of CREBH and ATF6. The domains are indicated by residue numbers of amino acids. (B) Northern blot analysis of CREBH mRNA levels in various tissues from mice. Tissue samples were collected from 3-month-old wild-type C57BL/6J mice. Levels of β-actin mRNA were determined for control of sample loading. (C) Expression profile of CREBH mRNA in fetal livers during embryogenesis. (D) Induction of CREBH mRNA in murine hepatoma cell line H2.35 under IL6 (40 ng/ml) stimulation for various time points. For panels A-D, experiments were performed at least 3 times and representative data are shown.
FIG. 2 depicts the analysis of gene expression in H2.35 cells. H2.35 cells were treated with 20 ng/ml TNFα, 40 ng/ml IL1β, 20 μg.ml LPS, 5 mM DTT, 0.5 μM Tg, 5 μg/ml Tm or 0.5 μg/ml BFA for 4, 8 and 12 hours, respectively. Levels of CREBH mRNA (A) and spliced XBP1 mRNA (B) in H2.35 were determined by quantitative real-time RT-PCR. Fold changes of mRNA induction were determined after normalization of the mRNA levels to internal control 18S ribosomal RNA levels. […] However, expression from the SAP or CRP promoter-reporter plasmids is sufficiently measurable in H2.35 cells so that it is possible to investigate transcriptional activation effects of CREBH on the CRP and SAP promoters by reporter assays in H2.35 cells. These reporter experiments are not possible in non-hepatocyte cell lines. However, for non-hepatocyte cell lines, such as wild-type and mutant CHO cells, CREBH cleavage and activation could be measured using the UPRE reporter assay. (C) Summary of stimuli that induce CREBH mRNA, NF-κB activation and the UPR in H2.35 and HepG2 cells. (D) Expression of BiP and GRP94 in H2.35 cells over-expressing CREBH or ATF6. H2.35 cells in a 35 mm collagen-coated plate were transfected with 1.5 μg empty DNA vector, vector expressing the nuclear form of CREBH (CREBH-N) or vector expressing nuclear form of ATF6 (ATF6 p50), respectively. Expression levels of BiP and GRP 94 were determined by Western blot analysis by using a murine and —BiP monoclonal antibody and a murine anti-GRP94 monoclonal antibody, respectively. The membranes were re-blotted with an anti-α-actin antibody for control of sample loading.
Northern blot analysis was performed according to standard procedures (Sambrook et al., 1989). ^32P-labeled probes were prepared using a random prime labeling system (Amersham Pharmacia, Piscataway, N.J., USA). A 210 bp mouse CREBH cDNA fragment, a 250 bp mouse CRP cDNA fragment and a 260 bp mouse SAP cDNA fragment were amplified from murine total RNA by reverse transcription-PCR system (Roche Applied Science), respectively, and were used as probes for Northern blot analyses. Total RNA (15 μg) per sample purified from cultured cells or murine tissues was used for Northern blot analysis. Quantitative real-time RT-PCR was performed as previously described (Back et al., 2005). Briefly, total cellular RNA prepared was reverse-transcribed to cDNA using a random primer (Applied Biosystems). The reaction mixture, containing SYBR Green PCR Master Mix (Applied Biosystems), was run in a 7900HT Fast Real-Time PCR System (Applied Biosystems). Real-time PCR primer sequences for quantification of murine XBP1 mRNA splicing are: the forward primer 5′-[…]-3′, and the reverse primer 5′-[…]-3′. Other primer sequences were designed by Primer Express (Applied Biosystems).

Q: With tunicamycin [Tm] as the substance, how does the “induction of CREBH mRNA” value read?
A: The value was “minor effect”.
